In one assay the target is D1 (Homo sapiens, UniProt P21728). Kind of assay: Dopamine receptor D1 binding. The conditions noted are these: [^3H]SCH 23390, Human recombinant CHO cells, read-out: CR6086 Activity at 10µM.
For another assay, the target named is 5-HT1B (Rattus norvegicus, UniProt P28564). Kind of assay: Serotonin receptor 5-HT1B binding. The conditions noted are these: [^125I]CYP (+30µM isoproterenol), Rat cerebral cortex, read-out: CR6086 Activity at 10µM.
Another assay concerns P2X. Kind of assay: Purinergic receptor P2X binding. The conditions noted are these: [^3H]α,β-MeATP, Rat urinary bladder.
The next assay has as its system σ (non-selective). Kind of assay: σ receptor (non-selective) binding. The conditions noted are these: [^3H]DTG, Rat cerebral cortex.
For the next assay, the target named is NTS1 (NT1) (Homo sapiens, UniProt P30989). Kind of assay: NTS1 receptor binding. As to conditions: [^125I]Tyr^3-neurotensin, Human recombinant CHO cells, read-out: CR6086 Activity at 10µM.
A further assay has as its target VPAC1 (VIP1) (Homo sapiens, UniProt P32241). Kind of assay: VPAC1 receptor binding. The conditions noted are these: [^125I]VIP, Human recombinant CHO cells, read-out: CR6086 Activity at 10µM.
The subject of the next assay is Kv channel. Nature of the assay: Ion channel Kv binding. As to conditions: [^125I]α-dendrotoxin, Rat cerebral cortex.

Sequence of D1 (P21728 whole entry): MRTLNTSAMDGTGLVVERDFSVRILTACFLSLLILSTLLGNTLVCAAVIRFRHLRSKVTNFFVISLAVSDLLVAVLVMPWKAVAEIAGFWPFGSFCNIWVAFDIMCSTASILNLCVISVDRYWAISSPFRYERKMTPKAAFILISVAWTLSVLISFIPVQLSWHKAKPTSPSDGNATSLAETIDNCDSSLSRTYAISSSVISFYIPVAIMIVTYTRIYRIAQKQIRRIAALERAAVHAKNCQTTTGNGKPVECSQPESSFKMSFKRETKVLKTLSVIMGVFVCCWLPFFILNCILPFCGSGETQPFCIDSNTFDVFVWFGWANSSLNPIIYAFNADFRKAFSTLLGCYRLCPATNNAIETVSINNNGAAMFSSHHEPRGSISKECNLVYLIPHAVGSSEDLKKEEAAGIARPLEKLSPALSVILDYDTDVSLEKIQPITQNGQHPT
Sequence of VPAC1 (VIP1) (P32241 31-457): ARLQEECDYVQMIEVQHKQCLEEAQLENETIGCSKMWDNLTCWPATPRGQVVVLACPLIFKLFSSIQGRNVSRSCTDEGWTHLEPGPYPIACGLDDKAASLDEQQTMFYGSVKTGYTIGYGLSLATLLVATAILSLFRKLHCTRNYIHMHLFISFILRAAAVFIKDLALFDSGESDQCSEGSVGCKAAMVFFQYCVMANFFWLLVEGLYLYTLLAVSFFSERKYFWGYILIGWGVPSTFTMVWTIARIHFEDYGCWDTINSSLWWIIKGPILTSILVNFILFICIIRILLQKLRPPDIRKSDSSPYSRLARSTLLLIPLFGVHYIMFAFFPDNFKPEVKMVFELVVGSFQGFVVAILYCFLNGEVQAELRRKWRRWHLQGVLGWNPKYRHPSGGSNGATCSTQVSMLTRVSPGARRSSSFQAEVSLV
Sequence of NTS1 (NT1) (P30989 whole entry): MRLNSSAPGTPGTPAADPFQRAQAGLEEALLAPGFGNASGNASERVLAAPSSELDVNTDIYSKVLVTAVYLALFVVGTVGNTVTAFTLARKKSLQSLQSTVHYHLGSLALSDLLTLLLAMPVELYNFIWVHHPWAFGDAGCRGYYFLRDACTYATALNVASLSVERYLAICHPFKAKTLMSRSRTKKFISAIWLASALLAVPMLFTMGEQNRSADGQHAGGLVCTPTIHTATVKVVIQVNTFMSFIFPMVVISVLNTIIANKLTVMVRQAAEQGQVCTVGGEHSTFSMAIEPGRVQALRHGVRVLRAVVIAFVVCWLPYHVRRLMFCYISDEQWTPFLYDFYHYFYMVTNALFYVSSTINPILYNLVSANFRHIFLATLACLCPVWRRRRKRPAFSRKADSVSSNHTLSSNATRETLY
Sequence of 5-HT1B (P28564 whole entry): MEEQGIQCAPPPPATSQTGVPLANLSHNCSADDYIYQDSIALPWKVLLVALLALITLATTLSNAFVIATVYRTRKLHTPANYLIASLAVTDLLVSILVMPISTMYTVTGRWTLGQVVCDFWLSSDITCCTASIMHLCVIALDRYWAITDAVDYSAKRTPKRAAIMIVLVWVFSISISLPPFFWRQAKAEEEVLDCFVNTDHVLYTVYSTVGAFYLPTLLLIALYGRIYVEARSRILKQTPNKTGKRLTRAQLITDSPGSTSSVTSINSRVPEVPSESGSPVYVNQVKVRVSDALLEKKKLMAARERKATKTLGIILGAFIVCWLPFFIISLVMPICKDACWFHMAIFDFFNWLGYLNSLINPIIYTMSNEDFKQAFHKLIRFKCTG

Turning to `O=C([O-])c1ccc(C2(NC(=O)[C@H]3CC4(CCN3Cc3ccc(C(F)(F)F)cc3)CC4)CC2)cc1.[Na+]` [CR6086, Sodium (R)-4-(1-(6-(4-(trifluoromethyl)benzyl)-6-azaspiro[2.5]octane-5-carboxamido)cyclopropyl)benzoate], the inhibition at 10 µM at D1, on 5-HT1B, at NTS1 (NT1) and on VPAC1 (VIP1) was < 20% each time. The “CR6086 Activity at 10µM” value with P2X, with σ (non-selective) and in the assay with Kv channel was “IN (IN = < 20% displacement or inhibition (all tables))” in each case.

Source of the values: publication PMC5831858, “Pharmacological characterisation of CR6086, a potent prostaglandin E2 receptor 4 antagonist, as a new potential disease-modifying anti-rheumatic drug” (Arthritis Research & Therapy, 2018).
